Data taken from ChEMBL document CHEMBL1143690, “The effects of N-terminal part modification of arginine vasopressin analogues with 2-aminoindane-2-carboxylic acid: a highly potent V2 agonist” (J Med Chem, 2007).
Calls of active or inactive are those of the source. The rule behind the calls is not given here. Positions of bridges follow the written chain, without caps; N, C: chain ends. Non-standard residues stand in square brackets, D forms with d. Residues, ends and D or L forms follow the SMILES beside them. Aic = NC1(C(=O)O)Cc2ccccc2C1

What was measured:
Rattus norvegicus [1] = experiment: Antidiuretic activity in sc dosed conscious Wistar rat in an antidiuresis time of t1/2 200 mins relative to AVP; type: functional, Urine
Rattus norvegicus [2] = experiment: Antidiuretic activity in sc dosed conscious Wistar rat in an antidiuresis time of t1/2 60 mins relative to dDAVP; type: functional, Urine
Rattus norvegicus [3] = experiment: Antidiuretic activity in sc dosed conscious Wistar rat in an antidiuresis time of t1/2 200 mins relative to dDAVP; type: functional, Urine
Rattus norvegicus [4] = experiment: Antidiuretic activity in sc dosed conscious Wistar rat in an antidiuresis time of t1/2 60 mins relative to AVP; type: functional, Urine
Rattus norvegicus [5] = species on record: Rattus norvegicus; experiment: Effect on arterial blood pressure in Wistar rat in pressor test; type: functional, organism-based; conditions: for Kb: Rattus norvegicus, Wistar, Arterial blood, read-out: pA2 (converted)
Rattus norvegicus [6] = species on record: Rattus norvegicus; experiment: In vitro uterotonic activity in Wistar rat oxytocic uterus in absence of Mg2+; type: functional; conditions: for Kb: read-out: pA2 (converted)

Row | Structure (SMILES) | Activity (Rattus norvegicus [1]) | Activity (Rattus norvegicus [2]) | Activity (Rattus norvegicus [3]) | Activity (Rattus norvegicus [4]) | Activity (Rattus norvegicus [5]) | Kb (Rattus norvegicus [6]) | further results
1 | NC(=O)CC[C@@H]1NC(=O)[C@H](Cc2ccccc2)NC(=O)C2(Cc3ccccc3C2)NC(=O)CCSSC[C@@H](C(=O)N2CCC[C@H]2C(=O)N[C@@H](CCCN=C(N)N)C(=O)NCC(N)=O)NC(=O)[C@H](CC(N)=O)NC1=O [listing 1 of 2 here] | 45000 IU/mg | 10% | 10% | 450 IU/mg | 5.3 IU/mg |  | 
2 | CC(C)[C@@H]1NC(=O)[C@H](Cc2ccccc2)NC(=O)C2(CCCCC2)NC(=O)CCSSC[C@@H](C(=O)N2CCC[C@H]2C(=O)N[C@H](CCCN=C(N)N)C(=O)NCC(N)=O)NC(=O)[C@H](CC(N)=O)NC1=O | 50000 IU/mg | 50% | 10% | 4500 IU/mg |  | 15.5 nM | Kb (Rattus norvegicus [5]): 724 nM
3 | NC(=O)CC[C@@H]1NC(=O)[C@H](Cc2ccccc2)NC(=O)C2(Cc3ccccc3C2)NC(=O)CCSSC[C@@H](C(=O)N2CCC[C@H]2C(=O)N[C@H](CCCN=C(N)N)C(=O)NCC(N)=O)NC(=O)[C@H](CC(N)=O)NC1=O [listing 1 of 2 here] |  |  |  |  |  | 49 nM | Kb (Rattus norvegicus [5]): 2510 nM
4 | NC(=O)CC[C@@H]1NC(=O)C2(Cc3ccccc3C2)NC(=O)[C@H](Cc2ccc(O)cc2)NC(=O)[C@H](N)CSSC[C@H](C(=O)N2CCC[C@H]2C(=O)N[C@H](CCCN=C(N)N)C(=O)NCC(N)=O)NC(=O)[C@H](CC(N)=O)NC1=O |  |  |  |  | inactive |  | Activity (Rattus norvegicus [1]; Urine): inactive; Activity (Rattus norvegicus [2]; Urine): inactive; Activity (Rattus norvegicus [3]; Urine): inactive; Activity (Rattus norvegicus [4]; Urine): inactive; Activity (Rattus norvegicus [6]): inactive
5 | NC(=O)CC[C@@H]1NC(=O)[C@H](Cc2ccccc2)NC(=O)C2(Cc3ccccc3C2)NC(=O)[C@@H](N)CSSC[C@@H](C(=O)N2CCC[C@H]2C(=O)N[C@@H](CCCN=C(N)N)C(=O)NCC(N)=O)NC(=O)[C@H](CC(N)=O)NC1=O [listing 1 of 2 here] | 45000 IU/mg | 10% | 10% | 450 IU/mg | 9.4 IU/mg |  | 
6 | NC(=O)CC[C@@H]1NC(=O)C2(Cc3ccccc3C2)NC(=O)[C@H](Cc2ccc(O)cc2)NC(=O)[C@H](N)CSSC[C@H](C(=O)N2CCC[C@H]2C(=O)N[C@@H](CCCN=C(N)N)C(=O)NCC(N)=O)NC(=O)[C@H](CC(N)=O)NC1=O |  |  |  |  | inactive |  | Activity (Rattus norvegicus [1]; Urine): inactive; Activity (Rattus norvegicus [2]; Urine): inactive; Activity (Rattus norvegicus [3]; Urine): inactive; Activity (Rattus norvegicus [4]; Urine): inactive; Activity (Rattus norvegicus [6]): inactive
7 | NC(=O)CC[C@@H]1NC(=O)[C@H](Cc2ccccc2)NC(=O)C2(Cc3ccccc3C2)NC(=O)[C@@H](N)CSSC[C@@H](C(=O)N2CCC[C@H]2C(=O)N[C@H](CCCN=C(N)N)C(=O)NCC(N)=O)NC(=O)[C@H](CC(N)=O)NC1=O [listing 1 of 2 here] |  |  |  |  |  | 138 nM | 
8 | NC(=O)CC[C@@H]1NC(=O)[C@H](Cc2ccccc2)NC(=O)C2(Cc3ccccc3C2)NC(=O)CCSSC[C@@H](C(=O)N2CCC[C@H]2C(=O)N[C@@H](CCCN=C(N)N)C(=O)NCC(N)=O)NC(=O)[C@H](CC(N)=O)NC1=O [listing 2 of 2 here] |  |  |  |  |  | 31.6 nM | 
9 | CC(C)[C@@H]1NC(=O)[C@H](Cc2ccccc2)NC(=O)C2(Cc3ccccc3C2)NC(=O)CCSSC[C@@H](C(=O)N2CCC[C@H]2C(=O)N[C@H](CCCN=C(N)N)C(=O)NCC(N)=O)NC(=O)[C@H](CC(N)=O)NC1=O [listing 1 of 2 here] | 450000 IU/mg | 50% | 100% | 4500 IU/mg |  |  | 
10 | NC(=O)CC[C@@H]1NC(=O)[C@H](Cc2ccccc2)NC(=O)C2(Cc3ccccc3C2)NC(=O)[C@@H](N)CSSC[C@@H](C(=O)N2CCC[C@H]2C(=O)N[C@@H](CCCN=C(N)N)C(=O)NCC(N)=O)NC(=O)[C@H](CC(N)=O)NC1=O [listing 2 of 2 here] |  |  |  |  |  | 53.7 nM | 
11 | CC(C)[C@@H]1NC(=O)[C@H](Cc2ccccc2)NC(=O)C2(Cc3ccccc3C2)NC(=O)[C@@H](N)CSSC[C@@H](C(=O)N2CCC[C@H]2C(=O)N[C@@H](CCCN=C(N)N)C(=O)NCC(N)=O)NC(=O)[C@H](CC(N)=O)NC1=O (H-C[Aic]FVNCPRG-NH2; disulfide 1-6) [listing 1 of 2 here] | 45000 IU/mg | 10% | 10% | 450 IU/mg | 0 IU/mg |  | 
12 | NC(=O)CC[C@@H]1NC(=O)[C@H](Cc2ccccc2)NC(=O)C2(Cc3ccccc3C2)NC(=O)CCSSC[C@@H](C(=O)N2CCC[C@H]2C(=O)N[C@H](CCCN=C(N)N)C(=O)NCC(N)=O)NC(=O)[C@H](CC(N)=O)NC1=O [listing 2 of 2 here] | 45000 IU/mg | 10% | 10% | 450 IU/mg |  |  | 
13 | CC(C)[C@@H]1NC(=O)[C@H](Cc2ccccc2)NC(=O)C2(Cc3ccccc3C2)NC(=O)CCSSC[C@@H](C(=O)N2CCC[C@H]2C(=O)N[C@H](CCCN=C(N)N)C(=O)NCC(N)=O)NC(=O)[C@H](CC(N)=O)NC1=O [listing 2 of 2 here] |  |  |  |  |  | 8.71 nM | Kb (Rattus norvegicus [5]): 562 nM
14 | NC(=O)CC[C@@H]1NC(=O)[C@H](Cc2ccccc2)NC(=O)C2(Cc3ccccc3C2)NC(=O)[C@@H](N)CSSC[C@@H](C(=O)N2CCC[C@H]2C(=O)N[C@H](CCCN=C(N)N)C(=O)NCC(N)=O)NC(=O)[C@H](CC(N)=O)NC1=O [listing 2 of 2 here] | 4500 IU/mg | 1% | 1% | 45 IU/mg | 0 IU/mg |  | 
15 | NC(=O)CC[C@@H]1NC(=O)C2(Cc3ccccc3C2)NC(=O)[C@H](Cc2ccc(O)cc2)NC(=O)CCSSC[C@H](C(=O)N2CCC[C@H]2C(=O)N[C@@H](CCCN=C(N)N)C(=O)NCC(N)=O)NC(=O)[C@H](CC(N)=O)NC1=O |  |  |  |  | inactive |  | Activity (Rattus norvegicus [1]; Urine): inactive; Activity (Rattus norvegicus [2]; Urine): inactive; Activity (Rattus norvegicus [3]; Urine): inactive; Activity (Rattus norvegicus [4]; Urine): inactive; Activity (Rattus norvegicus [6]): inactive
16 | CC(C)[C@@H]1NC(=O)[C@H](Cc2ccccc2)NC(=O)C2(Cc3ccccc3C2)NC(=O)[C@@H](N)CSSC[C@@H](C(=O)N2CCC[C@H]2C(=O)N[C@@H](CCCN=C(N)N)C(=O)NCC(N)=O)NC(=O)[C@H](CC(N)=O)NC1=O (H-C[Aic]FVNCPRG-NH2; disulfide 1-6) [listing 2 of 2 here] |  |  |  |  |  | 11.7 nM | 
